Laboratory results reported in article PMC9114799, “In vitro Evaluation of Isoniazid Derivatives as Potential Agents Against Drug-Resistant Tuberculosis” (Frontiers in Pharmacology, 2022).
In brackets after ≈: the same amount, converted by molar mass. Where two headings read alike, the source gives them in different places. Marks after values point to notes of the source that are not given here.

Legend:
[1] = test system: M. tuberculosis clinical strain katG (S315T); assay type: cell-based, Mycobacterium tuberculosis
[2] = test system: M. tuberculosis clinical strain katG (S315T); details: ref Martins et al., cited from earlier work

SMILES | activity in the mutated strain [1] | increase of MIC going from wt to S315T [1] | MIC (katG S315T) ([2]; katG (S315T) Mtb, 2014) | gain in efficacy against katG (S315T) strain compared with INH [1] | MIC (katG S315T) ([2]; Table S1, 2014 (per Table 2))
COC(=O)c1ccc(/C=N/NC(=O)c2ccncc2)cc1 [Compound N33, methyl (E)-4-((2-isonicotinoylhydrazineylidene)methyl)benzoate] | still active | ~20 fold | 21.2 ^a µM |  | 
COC(=O)c1ccc(CNNC(=O)c2ccncc2)cc1 [Compound N33red, methyl 4-((2-isonicotinoylhydrazinyl)methyl)benzoate] | completely abolished |  |  |  | 
O=C(N/N=C/c1ccc(Oc2ccccc2)cc1)c1ccncc1 [Compound N34, (E)-N'-(4-phenoxybenzylidene)isonicotinohydrazide] | still active | ~20 fold | 18.9 ^a µM |  | 
O=C(NNCc1ccc(Oc2ccccc2)cc1)c1ccncc1 [Compound N34red, N'-(4-phenoxybenzyl)isonicotinohydrazide] | completely abolished |  |  |  | 
NNC(=O)c1ccncc1 [INH, isonicotinoylhydrazide, reference compound] |  | approximately 150 fold | 43.8 ^a µM |  | 
CCCCCCCCCC(=O)NNC(=O)c1ccncc1 [INH-C10, N′-decanoylisonicotinoylhydrazide] |  | ~20 fold | 6.9 ^a µM | 6 fold | 2.0 g/mL (≈ 6860 mM)
